We go through twelve compounds from US20080161232A1, “C5a Receptor Antagonist” (JERINI AG, priority 2005, published 2008).

Each structure is given as a SMILES string. Positions of bridges follow the written chain, without caps; N, C: chain ends. Non-standard residues stand in square brackets, D forms with d. Residues, ends and D or L forms follow the SMILES beside them. *: point of attachment. Phe(3-Cl) = N[C@@H](Cc1cccc(Cl)c1)C(=O)O; Phe(4-Me) = Cc1ccc(C[C@H](N)C(=O)O)cc1; 2Nal = N[C@@H](Cc1ccc2ccccc2c1)C(=O)O; Phe(2-F) = N[C@@H](Cc1ccccc1F)C(=O)O; Bta = N[C@@H](Cc1csc2ccccc12)C(=O)O; Hyp = O=C(O)[C@@H]1C[C@@H](O)CN1; d(hLeu) = CC(C)CC[C@@H](N)C(=O)O; 2Thi = N[C@@H](Cc1cccs1)C(=O)O; Cha = N[C@@H](CC1CCCCC1)C(=O)O; dCha = N[C@H](CC1CCCCC1)C(=O)O; Butoxycarbonyl = CCCCOC(=O)*; hLeu = CC(C)CC[C@H](N)C(=O)O; Nle = CCCC[C@H](N)C(=O)O; Orn = NCCC[C@H](N)C(=O)O; Aze = O=C(O)[C@@H]1CCN1; Dab = NCC[C@H](N)C(=O)O

For the first assay, the target named is T1, human C5aR(CD88) (Homo sapiens, UniProt P21730).
T1 construct: expressed in transfected cells; host or cells: rat basophilic leukemia cells (RBL)
T1 sequence (P21730 1-350): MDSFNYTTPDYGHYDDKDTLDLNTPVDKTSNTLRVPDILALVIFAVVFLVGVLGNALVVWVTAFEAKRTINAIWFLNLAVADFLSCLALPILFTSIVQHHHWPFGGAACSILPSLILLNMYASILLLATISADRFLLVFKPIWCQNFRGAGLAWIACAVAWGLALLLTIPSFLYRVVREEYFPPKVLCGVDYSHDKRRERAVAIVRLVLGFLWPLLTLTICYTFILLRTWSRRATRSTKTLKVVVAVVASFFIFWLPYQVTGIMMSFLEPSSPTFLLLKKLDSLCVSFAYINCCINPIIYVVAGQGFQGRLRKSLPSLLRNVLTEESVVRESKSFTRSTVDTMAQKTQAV
As to the kind of experiment: Determination of the IC50 value in an enzyme release assay (functional assay, antagonistic activity). It is filed as cell-based. The conditions noted are these: antagonistic activity; IC50 group in enzyme release assay, RBL cells expressing human C5aR(CD88); read-out: activity (group).
As to `CC(=O)N[C@@H](Cc1ccccc1)C(=O)N[C@@H](CCCN)C(=O)N1CCC[C@H]1C(=O)N[C@H](CCC(C)C)C(=O)N[C@@H](Cc1ccccc1F)C(=O)N[C@@H](Cc1ccccc1)C(N)=O` [Compound 295, Ac-Phe-Orn-Pro-hle-Off-Phe-NH2] (Ac-F[Orn]P[d(hLeu)][Phe(2-F)]F-NH2), the IC50 is 0.05 to 0.2 µM.

For `CC(=O)N[C@@H](CCN)C(=O)N[C@@H](Cc1ccccc1)C(=O)N[C@@H](CCCN)C(=O)N1CC[C@H]1C(=O)N[C@H](CC1CCCCC1)C(=O)N[C@@H](Cc1csc2ccccc12)C(=O)N[C@@H](Cc1ccccc1)C(N)=O` [Compound 141, Ac-Dab-Phe-Orn-Aze-cha-Bta-Phe-NH2] (Ac-[Dab]F[Orn][Aze][dCha][Bta]F-NH2), the IC50 is 0.05 to 0.2 µM.

Turning to `CC(=O)N[C@@H](Cc1ccccc1)C(=O)N[C@H]1CCCNC(=O)[C@H](Cc2cccs2)NC(=O)[C@H](Cc2c[nH]c3ccccc23)NC(=O)[C@@H](CC2CCCCC2)NC(=O)[C@@H]2CCCN2C1=O` [Compound 38, Ac-Phe-[Orn-Pro-cha-Trp-Thi]] (Ac-F[Orn]P[dCha]W[2Thi]; lactam 2-C), the IC50 lay within 0.02 to 0.05 µM.

Consider `CCCCOC(=O)N[C@@H](Cc1ccccc1)C(=O)N[C@@H](CCCN)C(=O)N1CCC[C@H]1C(=O)N[C@H](CC1CCCCC1)C(=O)N[C@@H](Cc1c[nH]c2ccccc12)C(=O)N[C@@H](Cc1ccccc1)C(N)=O` [Compound 86, Bu-O—CO-Phe-Orn-Pro-cha-Trp-Phe-NH2] (Butoxycarbonyl-F[Orn]P[dCha]WF-NH2), for which the IC50 lay in the range of 0.2 to 2 µM.

As to `CC(=O)N[C@@H](Cc1ccccc1)C(=O)N[C@@H](CCCN)C(=O)N1CCC[C@H]1C(=O)N[C@H](CCC(C)C)C(=O)N[C@@H](Cc1csc2ccccc12)C(=O)N[C@@H](CC1CCCCC1)C(N)=O` [Compound 274, Ac-Phe-Orn-Pro-hle-Bta-Cha-NH2] (Ac-F[Orn]P[d(hLeu)][Bta][Cha]-NH2), the IC50 is 0.05 to 0.2 µM.

Turning to `CC(=O)N[C@@H](Cc1ccccc1)C(=O)N[C@H]1CCCNC(=O)[C@H](Cc2ccccc2)NC(=O)[C@H](Cc2cccc(Cl)c2)NC(=O)[C@@H](CCC(C)C)NC(=O)[C@@H]2C[C@@H](O)CN2C1=O` [Compound 178, Ac-Phe-[Orn-Hyp-hle-Mcf-Phe]] (Ac-F[Orn][Hyp][d(hLeu)][Phe(3-Cl)]F; lactam 2-C), the IC50 fell in the range of 0.05 to 0.2 µM.

Consider `CC(=O)N[C@@H](Cc1ccccc1)C(=O)N[C@H]1CCCNC(=O)[C@H](CCC(C)C)NC(=O)[C@H](Cc2c[nH]c3ccccc23)NC(=O)[C@@H](CC2CCCCC2)NC(=O)[C@@H]2CCCN2C1=O` [Compound 32, Ac-Phe-[Orn-Pro-cha-Trp-Hle]] (Ac-F[Orn]P[dCha]W[hLeu]; lactam 2-C), for which the IC50 lay within 0.02 to 0.05 µM.

Take `CC(=O)N[C@@H](Cc1ccccc1)C(=O)N[C@@H](CCCN)C(=O)N1CCC[C@H]1C(=O)N[C@H](CC1CCCCC1)C(=O)N[C@@H](Cc1csc2ccccc12)C(=O)N[C@@H](Cc1ccc(C)cc1)C(N)=O` [Compound 260, Ac-Phe-Orn-Pro-cha-Bta-Pmf-NH2] (Ac-F[Orn]P[dCha][Bta][Phe(4-Me)]-NH2): the IC50 lay in the range of 0.02 to 0.05 µM.

With `CC(=O)N[C@@H](Cc1ccccc1)C(=O)N[C@@H](CCCN)C(=O)N1CCC[C@H]1C(=O)N[C@H](CC1CCCCC1)C(=O)N[C@@H](Cc1c[nH]c2ccccc12)C(=O)N[C@@H](Cc1ccc2ccccc2c1)C(N)=O` [Compound 64, Ac-Phe-Orn-Pro-cha-Trp-2Ni—NH2] (Ac-F[Orn]P[dCha]W[2Nal]-NH2), the IC50 fell in the range of 0.02 to 0.05 µM.

`CC(=O)N[C@@H](Cc1ccccc1)C(=O)N[C@@H](CCCN)C(=O)N1CCC[C@H]1C(=O)N[C@H](CC1CCCCC1)C(=O)N[C@@H](Cc1c[nH]c2ccccc12)C(=O)N[C@@H](Cc1cccs1)C(N)=O` [Compound 80, Ac-Phe-Orn-Pro-cha-Trp-Thi-NH2] (Ac-F[Orn]P[dCha]W[2Thi]-NH2): the IC50 lay within 0.05 to 0.2 µM.

`CC(=O)N[C@@H](Cc1ccccc1)C(=O)N[C@H]1CCCNC(=O)[C@H](Cc2ccccc2)NC(=O)[C@H](Cc2csc3ccccc23)NC(=O)[C@@H](CCC(C)C)NC(=O)[C@@H]2CCCN2C1=O` [Compound 197, Ac-Phe-[Orn-Pro-hle-Bta-Phe]] (Ac-F[Orn]P[d(hLeu)][Bta]F; lactam 2-C): the IC50 was in the range of 0.05 to 0.2 µM.

Turning to `CCCC[C@H](NC(=O)[C@H](Cc1ccccc1)NC(C)=O)C(=O)N1CCC[C@H]1C(=O)N[C@H](CC1CCCCC1)C(=O)N[C@@H](Cc1csc2ccccc12)C(=O)N[C@@H](Cc1ccccc1)C(N)=O` [Compound 120, Ac-Phe-Nle-Pro-cha-Bta-Phe-NH2] (Ac-F[Nle]P[dCha][Bta]F-NH2), the IC50 is 0.05 to 0.2 µM.

Still in this assay, the particulars now being: functional assay of example 11; noteworthy = IC50 less than 200 nM.
In the case of `CC(=O)N[C@@H](Cc1ccccc1)C(=O)N[C@H]1CCCNC(=O)[C@H](Cc2cccs2)NC(=O)[C@H](Cc2c[nH]c3ccccc23)NC(=O)[C@@H](CC2CCCCC2)NC(=O)[C@@H]2CCCN2C1=O` [Compound 38, Ac-Phe-[Orn-Pro-cha-Trp-Thi]] (Ac-F[Orn]P[dCha]W[2Thi]; lactam 2-C), the “inhibitory activity (in words)” value was “without significant loss of activity”.

Regarding `CC(=O)N[C@@H](Cc1ccccc1)C(=O)N[C@H]1CCCNC(=O)[C@H](CCC(C)C)NC(=O)[C@H](Cc2c[nH]c3ccccc23)NC(=O)[C@@H](CC2CCCCC2)NC(=O)[C@@H]2CCCN2C1=O` [Compound 32, Ac-Phe-[Orn-Pro-cha-Trp-Hle]] (Ac-F[Orn]P[dCha]W[hLeu]; lactam 2-C), the “inhibitory activity (in words)” value was “without significant loss of activity”.

The assay is the same for the next values; noted with them: functional assay of example 11; noteworthy = IC50 less than 200 nM; listed as Ac-Phe-[Orn-Pro-cha-Trp-Hle].
As for `CC(=O)N[C@@H](Cc1ccccc1)C(=O)N[C@H]1CCCNC(=O)[C@H](CCC(C)C)NC(=O)[C@H](Cc2c[nH]c3ccccc23)NC(=O)[C@@H](CC2CCCCC2)NC(=O)[C@@H]2CCCN2C1=O` [Compound 32, Ac-Phe-[Orn-Pro-cha-Trp-Hle]] (Ac-F[Orn]P[dCha]W[hLeu]; lactam 2-C), the “inhibitory activity (in words)” value is “noteworthy inhibitory activity”.

The same assay, now with this note: functional assay of example 11; noteworthy = IC50 less than 200 nM; listed as Ac-Phe-[Orn-Pro-cha-Trp-Thi].
In the case of `CC(=O)N[C@@H](Cc1ccccc1)C(=O)N[C@H]1CCCNC(=O)[C@H](Cc2cccs2)NC(=O)[C@H](Cc2c[nH]c3ccccc23)NC(=O)[C@@H](CC2CCCCC2)NC(=O)[C@@H]2CCCN2C1=O` [Compound 38, Ac-Phe-[Orn-Pro-cha-Trp-Thi]] (Ac-F[Orn]P[dCha]W[2Thi]; lactam 2-C), the “inhibitory activity (in words)” value is “noteworthy inhibitory activity”.
